Where a name gives a salt, the structure may show the parent alone. Read-outs that look alike come from different tables or passages of the source.

The assay concerns murine neural precursor cells (neurosphere cultures). Put plainly: HTS of LOPAC library against secondary neurosphere cultures, MTT proliferation assay at 3 μM, day 7 (z score, P value). It is filed as cell-based, mouse.
Setting [1] is: LOPAC screen, neurosphere MTT proliferation, 3 μM, day 7.
The mark [2] stands for this setting: yes/no: significantly inhibited neurosphere proliferation (P<0.01) in primary screen.
Where [3] appears, read: LOPAC primary screen, neurosphere MTT proliferation, 3 μM, day 7.
[4] abbreviates: yes/no: significantly inhibited neurosphere proliferation (P<0.01) in the primary screen.
The mark [5] stands for this setting: primary LOPAC screen, 3 μM, MTT, neurosphere proliferation.
The mark [6] stands for this setting: yes = significantly inhibited neurosphere proliferation (P<0.01) in the primary screen.
The mark [7] stands for this setting: yes/no: significantly inhibited neurosphere proliferation in primary screen.
Where [8] appears, read: yes/no: significantly inhibited neurosphere proliferation in the primary screen.
Setting [9] is: LOPAC library screen at 3 μM, secondary neurosphere cultures, MTT.

As for `NCC(CC(=O)O)c1ccc(Cl)cc1` (racemic) [(±)-Baclofen], the Z score under setting [1] is recorded as −1.069. Moreover, the Activity entry under setting [2] is given as “no”.
In the case of `COC(=O)C1=C(C)NC(C)=C([N+](=O)[O-])C1c1ccccc1C(F)(F)F` (racemic) [(±)-Bay K 8644], the Z score under setting [1] is 0.853. For the same compound, the Activity result under setting [2] is listed as “no”.
`CN(C)CCC(c1ccc(Br)cc1)c1ccccn1.O=C(O)/C=C\C(=O)O` (racemic) [(±)-Brompheniramine maleate] showed a Z score under setting [3] of −3.530. Besides, the Activity entry under setting [4] is “yes”.
Take `CC(C)(C)NCC(O)COc1cccc2[nH]c(=O)[nH]c12.Cl` (racemic) [(±)-CGP-12177A hydrochloride]: the Z score under setting [1] is given as −1.611. For the same compound, the Activity result under setting [2] is “no”.
For `O=C(O)C1CN(CCCP(=O)(O)O)CCN1` (racemic) [(±)-CPP] the same measures were 0.321 and “no”.
Turning to `Br.Br.C=CCN1CCc2c(cc(O)c(O)c2Cl)C(c2ccccc2)C1` (racemic) [(±)-Chloro-APB dihydrobromide], under setting [1], the Z score is given as −0.111. In addition, the Activity result under setting [2] is “no”.
Take `CN(C)CCC(c1ccc(Cl)cc1)c1ccccn1.O=C(O)/C=C\C(=O)O` (racemic) [(±)-Chlorpheniramine maleate]: the Activity entry is reported as “no” and the Z score is reported as −2.116.
Take `COc1cc(CC(C)N)c(OC)cc1I.Cl` (racemic) [(±)-DOI hydrochloride]: the Z score under setting [1] is on record as −1.345. Further, the Activity result under setting [2] was “no”.
Turning to `CNCC(O)c1ccc(O)c(O)c1.Cl` (racemic) [(±)-Epinephrine hydrochloride], the Z score under setting [3] was −0.328. For the same compound, the Activity entry under setting [2] is “no”.
Regarding `NC1CCN(O)C1=O` (racemic) [(±)-HA-966], the Activity entry is listed as “no”. Also, under setting [5], the Z score is on record as 1.157.
Consider `N[C@H](C(=O)O)c1cc(O)no1` (racemic) [(±)-Ibotenic acid], for which the Z score under setting [3] is given as −1.650. In addition, the Activity entry under setting [2] is listed as “no”.
The like results for `CC(C)Cc1ccc(C(C)C(=O)O)cc1` (racemic) [(±)-Ibuprofen] were, in that order, −0.262 and “no”.
Compound `CC(C)NCC(O)c1ccc(O)c(O)c1.Cl` (racemic) [(±)-Isopoterenol hydrochloride] returned a Z score under setting [3] of −0.572. In addition, the Activity entry under setting [2] is recorded as “no”.
`COc1ccc(CCN(C)CCCC(C#N)(c2cc(OC)c(OC)c(OC)c2)C(C)C)cc1OC.Cl` (racemic) [(±)-Methoxyverapamil hydrochloride] came in with a Z score under setting [3] of −1.407. Moreover, the Activity entry under setting [6] is recorded as “no”.
For `COCCc1ccc(OCC(O)CNC(C)C)cc1.O=C(O)C(O)C(O)C(=O)O` (racemic) [(±)-Metoprolol (+)-tartate], the Z score under setting [3] is −0.269. Besides, the Activity result under setting [6] is reported as “no”.
`C[C@@H]1O[C@H](C[N+](C)(C)C)C[C@H]1O.[Cl-]` (racemic) [(±)-Muscarine chloride]: the Z score under setting [3] is reported as −1.905. For the same compound, under setting [6], the Activity result is listed as “no”.
Take `O=C(O)C1CCCNC1` (racemic) [(±)-Nipecotic acid]: the Z score is listed as −0.722.
`NC[C@H](O)c1ccc(O)c(O)c1.O=C(O)C(O)C(O)C(=O)O` (racemic) [(±)-Norepinephrine (+)bitartrate]: the Z score under setting [3] came out at 0.099. Under setting [7], the Activity result is on record as “no”.
Regarding `COc1cc(C(O)CN)ccc1O.Cl` (racemic) [(±)-Normetanephrine hydrochlodride], under setting [3], the Z score is −1.796. Also, the Activity result under setting [6] was “no”.
Under setting [3], `CN1CCN(C2Cc3ccccc3Sc3ccc(Cl)cc32)CC1.O=C(O)/C=C\C(=O)O` (racemic) [(±)-Octoclothepin maleate] had a Z score of 1.473. Further, under setting [4], the Activity result is given as “no”.
Take `Cl.NCC(O)c1ccc(O)cc1` (racemic) [(±)-Octopamine hydrochloride]: the Z score under setting [3] is given as −1.567. Also, the Activity result under setting [7] is recorded as “no”.
On to `CCCN1CCOC2c3cc(O)ccc3OCC21.Cl` (racemic) [(±)-PD 128,907 hydrochloride], for which the Z score under setting [3] was 1.164. Further, the Activity entry under setting [7] is given as “no”.
`CCCN(CCc1ccccc1)C1CCc2c(O)cccc2C1.Cl` (racemic) [(±)-PPHT hydrochloride]: the Z score under setting [3] is recorded as −1.915. The Activity result under setting [4] is given as “no”.
In turn, `CC(C)NCC(O)COc1cccc2ccccc12.Cl` (racemic) [(±)-Propranolol hydrochloride] showed a Z score under setting [3] of 0.357. Besides, under setting [7], the Activity result is “no”.
Regarding `Br.C=CCN1CCc2cc(O)c(O)cc2C(c2ccccc2)C1` (racemic) [(±)-SKF 38393, N-allyl-, hydrobromide], the Activity result was “no”. Also, under setting [5], the Z score is listed as −1.590.
`Cl.Oc1cc2c(cc1O)C(c1ccccc1)CNCC2` (racemic) [(±)-SKF-38393 hydrochloride]: the Activity result is reported as “no”. Further, the Z score under setting [1] was 1.280.
The compound `CC(C)NCC(O)c1ccc(NS(C)(=O)=O)cc1.Cl` (racemic) [(±)-Sotalol hydrochloride] showed a Z score under setting [3] of −0.813. Besides, under setting [7], the Activity result is “no”.
For `CNCC(O)c1ccc(O)cc1` (racemic) [(±)-Synephrine], under setting [3], the Z score is given as −0.149. Also, the Activity result under setting [7] is “no”.
`O=C1c2c(O)cc(O)cc2O[C@H](c2ccc(O)c(O)c2)[C@H]1O` (racemic) [(±)-Taxifolin]: the Z score (168 h, 3 µM) is recorded as 1.321. For the same compound, under setting [8], the Activity entry is on record as “no”.
Consider `O=C1CCC(N2C(=O)c3ccccc3C2=O)C(=O)N1` (racemic) [(±)-Thalidomide], for which the Z score under setting [5] is listed as 0.521. Moreover, the Activity entry under setting [8] is listed as “no”.
On to `COc1cc(C(O)C(=O)O)ccc1O` (racemic) [(±)-Vanillylmandelic acid], for which the Z score (168 h, 3 µM) is on record as −1.811. Also, the Activity entry under setting [2] is on record as “no”.
With `Cl.OC1CCCCC1N1CCC(c2ccccc2)CC1` (racemic) [(±)-Vesamicol hydrochloride], the Z score under setting [5] is recorded as −1.967. The Activity entry under setting [8] is on record as “no”.
Regarding `O=C(O)CCCCC1CCSS1` (racemic) [(±)-alpha-Lipoic Acid], the Z score under setting [3] came out at 0.342. For the same compound, the Activity entry under setting [7] was “no”.
Regarding `CC(N)(C(=O)O)c1ccc(C(=O)O)cc1` (racemic) [(±)-alpha-Methyl-4-carboxyphenylglycine], the Z score under setting [3] is listed as 0.727. Further, under setting [6], the Activity result is “no”.
With `O=C(O)[C@H]1CCCN[C@H]1C(=O)O` (racemic) [(±)-cis-Piperidine-2,3-dicarboxylic acid], the Z score (168 h, 3 µM) is reported as 0.155. The Activity result under setting [7] is “no”.
`C=CC(N)CCC(=O)O` (racemic) [(±)-gamma-Vinyl GABA] had a Z score under setting [5] of −0.701. Also, the Activity result under setting [8] was “no”.
On to `CCC1(c2ccc(N)cc2)CCC(=O)NC1=O` (racemic) [(±)-p-Aminoglutethimide], for which the Activity result is “no”. Further, under setting [5], the Z score is listed as −0.444.
`NC(Cc1ccc(Cl)cc1)C(=O)O` (racemic) [(±)-p-Chlorophenylalanine] had a Z score under setting [1] of −0.247. Further, under setting [2], the Activity entry was “no”.
Consider `CCCCS(=N)(=O)CCC(N)C(=O)O` (racemic) [DL-Buthionine-[S,R]-sulfoximine], for which the “Z Score” value under setting [9] is −1.022. Under setting [1], this compound showed a Z score of −1.022. In addition, under setting [2], the Activity result was “no”.
For `N[C@@H]1CONC1=O` (racemic) [DL-Cycloserine], the “Z Score” value under setting [9] is recorded as −0.2986. Under setting [1], the Z score is listed as −0.299. The Activity result under setting [2] was “no”.
Turning to `CCCCCCCCCCCCCCCCCC(=O)OC(CC(=O)O)C[N+](C)(C)C.[Cl-]` (racemic) [DL-Stearoylcarnitine chloride], the “Z Score” value is on record as 0.6378. This compound yielded a Z score under setting [3] of 0.638. For the same compound, the Activity entry under setting [7] is “no”.
Take `O=C(O)CNC(=O)C(CS)Cc1ccccc1` (racemic) [DL-Thiorphan]: the “Z Score” value under setting [9] is reported as −0.3116. This compound also yielded a Z score under setting [3] of −0.312. Also, under setting [7], the Activity result was “no”.
For the compound `CC(N)(Cc1ccc(O)cc1)C(=O)O` (racemic) [DL-alpha-Methyl-p-tyrosine], the “Z Score” value is −3.908. The same compound registered a Z score under setting [3] of −3.908. For the same compound, the Activity result under setting [4] is “yes”.
For `CCCCCCCCCCCCCCC[C@H](O)[C@H](N)CO` (racemic) [DL-erythro-Dihydrosphingosine], the “Z Score” value (LOPAC library screen, 3 μM, MTT, neurosphere cultures) is on record as −0.0785. Under setting [1], this compound gave a Z score of −0.079. Also, the Activity entry under setting [2] is recorded as “no”.
For the compound `COC(=O)C(N)Cc1ccc(Cl)cc1.Cl` (racemic) [DL-p-Chlorophenylalanine methyl ester hydrochloride], the “Z Score” value was found to be 0.1276. In addition, under setting [1], the Z score was 0.128. In addition, the Activity result under setting [2] is “no”.
Turning to `NC(C(=O)O)C(O)C(=O)O` (racemic) [DL-threo-beta-hydroxyaspartic acid], the “Z Score” value is −0.5215. Under setting [3], the Z score is recorded as −0.522. For the same compound, under setting [2], the Activity entry is “no”.
For `Oc1cc2c(cc1O)[C@H]1c3ccccc3CN[C@@H]1CC2` (racemic) [Dihydrexidine hydrochloride], the “Z Score” value under setting [9] is reported as −0.4153. The Z score under setting [1] was −0.415. Further, the Activity result under setting [2] is reported as “no”.
Consider `COC(=O)N1CCN(C(=O)Cc2ccc(Cl)c(Cl)c2)C(CN2CCCC2)C1.O=C(O)/C=C/C(=O)O` (racemic) [GR-89696 fumarate], for which the “Z Score” value was −0.7788. Besides, the Z score under setting [3] is recorded as −0.779. In addition, the Activity entry under setting [4] is recorded as “no”.
Take `NC1C=CC=C(C(=O)O)C1` (racemic) [Gabaculine hydrochloride]: the “Z Score” value is −2.256. The Z score under setting [5] is −2.256. For the same compound, under setting [8], the Activity result is “no”.

Values taken from patent US8058243B2, “Method for treating a brain cancer with ifenprodil” (HSC Research and Development Limited Partnership, priority 2006, dated 2011).
